{"source": "patent US5714594A", "about": "“cDNA cloning and expression of human liver estrogen sulfotransferase” (Mayo Foundation for Medical Education and Research, priority 1994, dated 1998)", "molecules": {"B1": {"name": "human liver EST (Homo sapiens) (protein)", "chain": "MNSELDYYEKFEEVHGILMYKDFVKYWDNVEAFQARPDDLVIATYPKSGTTWVSEIVYMIYKEGDVEKCKEDVIFNRIPFLECRKENLMNGVKQLDEMNSPRIVKTHLPPELLPASFWEKDCKIIYLCRNAKDVAVSFYYFFLMVAGHPNPGSFPEFVEKFMQGQVPYGSWYKHVKSWWEKGKSPRVLFLFYEDLKEDIRKEVIKLIHFLERKPSEELVDRIIHHTSFQEMKNNPSTNYTTLPDEIMNQKLSPFMRKGITGDWKNHFTVALNEKFDKHYEQQMKESTLKFRTEI", "notes": "expressed in transfected cells; host or cells: COS-1 cells, vector p91023(B); 100,000×g high-speed supernatant"}, "B2": {"name": "human liver DHEA ST (Homo sapiens) (protein)", "chain": "MSDDFLWFEGIAFPTMGFRSETLRKVRDEFVIRDEDVIILTYPKSGTNWLAEILCLMHSKGDAKWIQSVPIWERSPWVESEIGYTALSETESPRLFSSHLPIQLFPKSFFSSKAKVIYLMRNPRDVLVSGYFFWKNMKFIKKPKSWEEYFEWFCQGTVLYGSWFDHIHGWMPMREEKNFLLLSYEELKQDTGRTIEKICQFLGKTLEPEELNLILKNSSFQSMKENKMSNYSLLSVDYVVDKAQLLRKGVSGDWKNHFTVAQAEDFDKLFQEKMADLPRELFPWE", "notes": "expressed in transfected cells; host or cells: COS-1 cells; high-speed supernatant"}}, "key": {"human liver EST [1]": {"molecular_target": "T1, human liver EST (Homo sapiens, UniProt P49888)", "T1 sequence (P49888 1-294)": "B1 chain", "experiment": "ST activities in high-speed supernatants of COS-1 cells transfected with human liver EST cDNA", "type": "biochemical", "set-up": "expressed in transfected cells; host or cells: COS-1 cells, vector p91023(B); 100,000×g high-speed supernatant", "settings": "substance is the sulfate acceptor substrate; transfected COS-1 cell preparation; 1 unit = 1 nmol sulfated product per hour at 37° C.", "description": "B. Expression in COS-1 cells. COS-1 cells were transfected with an EST cDNA expression construct in the eukaryotic expression vector p91023(B) as well as with vector alone using the DEAE-dextran method (H. Luthman et al., Nucleic Acids Res., 11, 1295-1308 (1983)). After harvesting, cell pellets were washed with 5 ml of phosphate buffered saline (PBS) and were homogenized for 30 seconds in 2 ml of 5 mM potassium phosphate buffer, pH 6.5. The homogenates were centrifuged at 15,000×g for 15 minutes at 4° C., and supernatants were centrifuged at 100,000×g for 1 hour at 4° C. Five μl aliquots of the 100,000×g \"high-speed supernatants\" (HSS) were assayed for ST enzymatic activities.\nA. Sulfotransferase (ST) activities. The abilities of EST and DHEA ST to catalyze sulfation of various substrates were compared.\nOne unit of enzyme activity represented the formation of 1 nmol of sulfated product per hour of incubation at 37° C. All assays were performed in triplicate, and values reported are averages of those three determinations. Protein concentrations were measured by the method of Bradford (Anal. Biochem., 72, 248-254 (1976)) with bovine serum albumin as a standard."}, "human liver DHEA ST [2]": {"molecular_target": "T2, human liver DHEA ST (Homo sapiens, UniProt Q06520)", "T2 sequence (Q06520 1-285)": "B2 chain", "experiment": "DCNP inhibition of DHEA ST activity", "type": "biochemical", "set-up": "expressed in transfected cells; host or cells: COS-1 cells; high-speed supernatant", "settings": "DHEA as substrate; expressed in COS-1 cells; read-out: mean DCNP concentration at which DHEA ST activity was 50% inhibited", "description": "(§1) D. DCNP inhibition of EST activity. […] EST activity (using its preferred substrate, estrone) and DHEA ST activity (using its preferred substrate, DHEA) were 50% inhibited at very similar mean DCNP concentrations, 28±2.9 and 40±2.3 μM, respectively (FIG. 4B)."}, "human liver EST [3]": {"molecular_target": "T1, human liver EST", "experiment": "DCNP inhibition of EST activity", "type": "biochemical", "set-up": "expressed in transfected cells; host or cells: COS-1 cells, vector p91023(B); 100,000×g high-speed supernatant", "settings": "estrone as substrate; expressed in COS-1 cells; read-out: mean DCNP concentration at which EST activity was 50% inhibited", "description": "as §1"}, "human liver EST [4]": {"molecular_target": "T1, human liver EST", "settings": "150 mM NaCl; estrone as substrate; expressed in COS-1 cells", "description": "(§2) Biochemical characterization of human EST were carried out using aliquots of HSS from COS-1 cells transfected with human liver EST cDNA. Parallel experiments were performed with human liver DHEA ST cDNA (D. M. Otterness et at., Mol. Pharmacol., 41, 865-872 (1992)) that had also been transiently expressed in COS-1 cells.\n(§3) E. Effect of NaCl concentration on EST activity."}, "human liver DHEA ST [5]": {"molecular_target": "T2, human liver DHEA ST", "settings": "75 mM NaCl; DHEA as substrate", "description": "as §2, §3"}, "human EST": {"tested_on": "human EST", "experiment": "Optimization of EST assay conditions and preferred substrate", "type": "biochemical", "settings": "compared with estradiol-17β, ethinyl estradiol or DHEA", "text": "1. Identification of the preferred substrate for human EST.\n2. Optimization of EST assay conditions. Estrone was used as the substrate to determine optimal assay conditions and, subsequently, to characterize the properties of human EST."}, "[6]": {"substrate": "C[C@]12CC[C@@H]3c4ccc(O)cc4CC[C@H]3[C@@H]1CCC2=O", "experiment": "Substrate kinetics (apparent Km) of ST activity, EST", "type": "biochemical, human", "settings": "other: substance is the substrate; EST cDNA expressed in COS-1 cells", "description": "(§4) B. Kinetics of ST activity. Substrate kinetic studies designed to estimate apparent Km values were performed. Since human liver EST and DHEA ST can both catalyze the sulfation of steroids, these studies presented an opportunity to determine apparent Km values of the two enzymes with estrone and DHEA as substrates. Both enzyme preparations were tested with a range of estrone and DHEA concentrations. […] Apparent Km values were calculated by the method of Wilkinson (Biochem. J., 80, 324-332 (1961)) with a computer program written by Cleland (Nature, 198, 463-465 (1963))."}, "[7]": {"substrate": "C[C@]12CC[C@H](O)CC1=CC[C@@H]1[C@@H]2CC[C@]2(C)C(=O)CC[C@@H]12", "experiment": "Substrate kinetics (apparent Km) of ST activity, EST", "type": "biochemical, human", "settings": "other: substance is the substrate; EST cDNA expressed in COS-1 cells", "description": "as §4"}, "human liver EST [8]": {"molecular_target": "T1, human liver EST", "experiment": "Thermal inactivation of ST activity, EST", "type": "physicochemical", "set-up": "expressed in transfected cells; host or cells: COS-1 cells, vector p91023(B); 100,000×g high-speed supernatant", "settings": "preincubated 15 minutes; estrone as substrate; HSS from COS-1 cells", "description": "(§5) C. Thermal inactivation of ST activity. […] The temperatures at which 50% inactivation of EST (using its preferred substrate, estrone) and DHEA ST (using its preferred substrate, DHEA) activities occurred were 38.2±0.12 (mean±SEM) and 41.1±0.10° C., respectively (FIG. 4A). For the thermal inactivation experiment, HSS from COS-1 cells transfected with EST cDNA or DHEA ST cDNA was diluted 1:2 (v/v) with 5 mM potassium phosphate buffer, pH 6.5, preincubated at various temperatures for 15 minutes and was then placed on ice. An aliquot of the same preparation was kept on ice as a control. Each aliquot was then diluted further for assay of the ST activity being measured. Values for controls were determined at each temperature studied."}, "human liver DHEA ST [9]": {"molecular_target": "T2, human liver DHEA ST", "experiment": "Thermal inactivation of ST activity, DHEA ST", "type": "physicochemical", "set-up": "expressed in transfected cells; host or cells: COS-1 cells; high-speed supernatant", "settings": "preincubated 15 minutes; DHEA as substrate; HSS from COS-1 cells", "description": "as §5"}, "[10]": {"substrate": "C[C@]12CC[C@@H]3c4ccc(O)cc4CC[C@H]3[C@@H]1CCC2=O", "experiment": "Substrate kinetics (apparent Km) of ST activity, DHEA ST", "type": "biochemical, human", "settings": "other: substance is the substrate; DHEA ST cDNA expressed in COS-1 cells", "description": "as §4"}, "[11]": {"substrate": "C[C@]12CC[C@H](O)CC1=CC[C@@H]1[C@@H]2CC[C@]2(C)C(=O)CC[C@@H]12", "experiment": "Substrate kinetics (apparent Km) of ST activity, DHEA ST", "type": "biochemical, human", "settings": "other: substance is the substrate; DHEA ST cDNA expressed in COS-1 cells", "description": "as §4"}}, "data": [{"molecule": "O=[N+]([O-])c1ccc(O)cc1", "note": "[4-nitrophenol]", "values": [{"measurement": "sulfation catalyzed by the protein encoded by the human liver EST cDNA", "setting": "human liver EST [1]", "value": 5, "unit": "units/mg protein"}]}, {"molecule": "O=[N+]([O-])c1cc(Cl)c(O)c(Cl)c1", "note": "[DCNP, 2,6-dichloro-4-nitrophenol]", "values": [{"measurement": "IC50", "setting": "human liver DHEA ST [2]", "value": "40 ± 2.3", "unit": "µM"}, {"measurement": "IC50", "setting": "human liver EST [3]", "value": "28 ± 2.9", "unit": "µM"}]}, {"molecule": "C[C@]12CC[C@H](O)CC1=CC[C@@H]1[C@@H]2CC[C@]2(C)C(=O)CC[C@@H]12", "note": "[DHEA, dehydroepiandrosterone]", "values": [{"measurement": "sulfation catalyzed by the protein encoded by the human liver EST cDNA", "setting": "human liver EST [1]", "value": 2.3, "unit": "units/mg protein"}]}, {"molecule": "[Cl-].[Na+]", "note": "[NaCl]", "values": [{"measurement": "increase of human liver EST activity", "setting": "human liver EST [4]", "value": 86, "unit": "%"}, {"measurement": "peak activation of human liver DHEA ST", "setting": "human liver DHEA ST [5]", "value": 62, "unit": "%"}]}, {"molecule": "NCCc1ccc(O)c(O)c1", "note": "[dopamine]", "values": [{"measurement": "sulfation catalyzed by the protein encoded by the human liver EST cDNA", "setting": "human liver EST [1]", "value": "not"}]}, {"molecule": "C[C@]12CC[C@@H]3c4ccc(O)cc4CC[C@H]3[C@@H]1CCC2=O", "note": "[estrone]", "values": [{"measurement": "ST enzyme activity as sulfate acceptor substrate, compared with other substrates", "setting": "human EST", "value": "greater ST enzyme activity"}, {"measurement": "sulfation catalyzed by the protein encoded by the human liver EST cDNA", "setting": "human liver EST [1]", "value": 9, "unit": "units/mg protein"}]}, {"molecule": "B1", "values": [{"measurement": "Km", "setting": "[6]", "value": 0.17, "unit": "µM"}, {"measurement": "Km", "setting": "[7]", "value": 0.85, "unit": "µM"}, {"measurement": "temperature at which 50% inactivation of EST activity occurred (mean±SEM)", "setting": "human liver EST [8]", "value": "38.2±0.12", "unit": "°C"}]}, {"molecule": "B2", "values": [{"measurement": "temperature at which 50% inactivation of DHEA ST activity occurred (mean±SEM)", "setting": "human liver DHEA ST [9]", "value": "41.1±0.10", "unit": "°C"}, {"measurement": "Km", "setting": "[10]", "value": 3.1, "unit": "µM"}, {"measurement": "Km", "setting": "[11]", "value": 2.6, "unit": "µM"}]}]}
